Results taken from patent US12281122B1, “PI3K inhibitors” (Cogent Biosciences, Inc., priority 2023, dated 2025).

Key:
[1] = test system: T47D (PI3Kα-H1047R) cell line; test: HTRF phospho-AKT(S473) cell assay in T47D cells; assay type: cell-based, human; details: 2 hours compound incubation
Summary of the method: (§1)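 pAKT(S473) in lysates read by HTRF after a 2 h, 37 °C compound exposure (12-point 1:3 series, max 0.5% DMSO). SKBR3 (wild type, top 10 μM) received 70 ng/ml PDGF-BB during the final 15 min; T47D (H1047R, top 5 μM) was unstimulated. IC50 values derived from the dose-response.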

[2] = test system: SKBR3 (PI3Kα-Wild Type) cell line; test: HTRF phospho-AKT(S473) cell assay in SKBR3 cells; assay type: cell-based, human; details: 2 hours compound incubation, PDGF-BB stimulated
Summary of the method: as §1

[3] = Homo sapiens, HTRF phospho-AKT(S473), T47D (PI3Kα-H1047R) cells
[4] = Homo sapiens, SK-BR-3, HTRF phospho-AKT(S473), SKBR3 (PI3Kα-Wild Type) cells
[5] = Homo sapiens, T47D (PI3Kα-H1047R) cells, HTRF phospho-AKT(S473)
[6] = Homo sapiens, SK-BR-3, SKBR3 (PI3Kα-Wild Type) cells, HTRF phospho-AKT(S473)

SMILES | IC50 [1, 3] [nM] | IC50 [2, 4] [nM] | also measured
Cc1cc([C@@H](C)Nc2ccc(Cl)nc2C(=O)NS(C)(=O)=O)c2nc(N3CCCC(c4ncc(Cl)cn4)C3)n(C)c(=O)c2c1 (stereo in doubt) [Compound 587, 6-chloro-3-(((R)-1-(2-((R*)-3-(5-chloropyrimidin-2-yl)piperidin-1-yl)-3,6-dimethyl-4-oxo-3,4-dihydroquinazolin-8-yl)ethyl)amino)-N-(methylsulfonyl) picolinamide] |  |  | IC50 ([1]; HTRF phospho-AKT(S473), T47D (PI3Kα-H1047R) cells): 250 to 500 nM; IC50 ([2]; HTRF phospho-AKT(S473), SKBR3 (PI3Kα-Wild Type) cells): ≥ 5000 nM
Cc1cc([C@@H](C)Nc2ccc(Cl)nc2C(=O)NS(C)(=O)=O)c2nc(N3C[C@@H]4[C@H](C3)[C@H]4c3nc(C)nn3C(F)F)n(C)c(=O)c2c1 [Compound 643, 6-chloro-3-(((R)-1-(2-((1R,5S,6R)-6-(1-(difluoromethyl)-3-methyl-1H-1,2,4-triazol-5-yl)-3-azabicyclo[3.1.0]hexan-3-yl)-3,6-dimethyl-4-oxo-3,4-dihydroquinazolin-8-yl)ethyl)amino)-N-(methylsulfonyl) picolinamide] | 250 to 500 | ≥ 5000 | 
COc1ncc(F)c(N2CCN(c3nc4c([C@@H](C)Nc5ccc(Cl)nc5C(=O)NS(C)(=O)=O)cc(C)cc4c(=O)n3C)CC2)n1 [Compound 720, (R)-6-chloro-3-((1-(2-(4-(5-fluoro-2-methoxypyrimidin-4-yl)piperazin-1-yl)-3,6-dimethyl-4-oxo-3,4-dihydroquinazolin-8-yl)ethyl)amino)-N-(methylsulfonyl) picolinamide] | < 250 | 1000 to 5000 | 
Cc1cc([C@@H](C)Nc2ccc(Cl)nc2C(=O)NS(C)(=O)=O)c2nc(N3C[C@@H]4[C@H](C3)[C@H]4c3cnc(C)nc3)n(C)c(=O)c2c1 [Compound 405, 6-chloro-3-(((R)-1-(3,6-dimethyl-2-((1R,5S,6S)-6-(2-methylpyrimidin-5-yl)-3-azabicyclo[3.1.0]hexan-3-yl)-4-oxo-3,4-dihydroquinazolin-8-yl)ethyl)amino)-N-(methylsulfonyl) picolinamide] |  |  | IC50 [1, 5]: < 250 nM; IC50 [2, 6]: 1000 to 5000 nM
Cc1cc([C@@H](C)Nc2ccc(Cl)nc2C(=O)NS(C)(=O)=O)c2nc(N3CCC(C4=NN(C)C(=O)C4(F)F)CC3)n(C)c(=O)c2c1 [Compound 561, (R)-6-chloro-3-((1-(2-(4-(4,4-difluoro-1-methyl-5-oxo-4,5-dihydro-1H-pyrazol-3-yl)piperidin-1-yl)-3,6-dimethyl-4-oxo-3,4-dihydroquinazolin-8-yl)ethyl)amino)-N-(methylsulfonyl) picolinamide] | 250 to 500 | ≥ 5000 | 
Cc1cc([C@@H](C)Nc2ccc(Cl)nc2C(=O)NS(C)(=O)=O)c2nc(N3Cc4cn(-c5ccccc5C)nc4C3)n(C)c(=O)c2c1 [Compound 189, (R)-6-chloro-3-((1-(3,6-dimethyl-4-oxo-2-(2-(o-tolyl)-2,6-dihydropyrrolo[3,4-c]pyrazol-5(4H)-yl)-3,4-dihydroquinazolin-8-yl)ethyl)amino)-N-(methylsulfonyl) picolinamide] |  |  | IC50 [1, 5]: 250 to 500 nM; IC50 [2, 6]: ≥ 5000 nM
Cc1cc([C@@H](C)Nc2ccc(Cl)nc2C(=O)NS(C)(=O)=O)c2nc(-c3cnn(C)c3)n(C)c(=O)c2c1 [Compound 288, (R)-6-chloro-3-((1-(3,6-dimethyl-2-(1-methyl-1H-pyrazol-4-yl)-4-oxo-3,4-dihydroquinazolin-8-yl)ethyl)amino)-N-(methylsulfonyl) picolinamide] |  |  | IC50 [1, 5]: < 250 nM; IC50 [2, 6]: 1000 to 5000 nM
Cc1cc([C@@H](C)Nc2ccc(Cl)nc2C(=O)NS(C)(=O)=O)c2nc(N3CC[C@H](Oc4ccc(C)nn4)C3)n(C)c(=O)c2c1 [Compound 527, 6-chloro-3-(((R)-1-(3,6-dimethyl-2-((S)-3-((6-methylpyridazin-3-yl)oxy)pyrrolidin-1-yl)-4-oxo-3,4-dihydroquinazolin-8-yl)ethyl)amino)-N-(methylsulfonyl) picolinamide] | < 250 | 1000 to 5000 | 
Cc1cc([C@@H](C)Nc2ccc(Cl)nc2C(=O)NS(C)(=O)=O)c2nc(N3CCC4(CCc5c[nH]nc54)CC3)n(C)c(=O)c2c1 [Compound 682, (R)-6-chloro-3-((1-(2-(4,5-dihydro-2H-spiro [cyclopenta[c]pyrazole-6,4′-piperidin]-1′-yl)-3,6-dimethyl-4-oxo-3,4-dihydroquinazolin-8-yl)ethyl)amino)-N-(methylsulfonyl) picolinamide] | 250 to 500 | ≥ 5000 | 
Cc1cc([C@@H](C)Nc2ccc(Cl)nc2C(=O)NS(C)(=O)=O)c2nc(N3CCC[C@@H](c4ccccn4)C3)n(C)c(=O)c2c1 (relative stereo) [Compound 208, 6-chloro-3-(((R)-1-(3,6-dimethyl-4-oxo-2-((R*)-3-(pyridin-2-yl)piperidin-1-yl)-3,4-dihydroquinazolin-8-yl)ethyl)amino)-N-(methylsulfonyl) picolinamide] |  |  | IC50 [1, 5]: 250 to 500 nM; IC50 [2, 6]: ≥ 5000 nM
Cc1cc([C@@H](C)Nc2ccc(Cl)nc2C(=O)NS(C)(=O)=O)c2nc(N3C[C@@H]4C[C@H]3CN4c3ccccn3)n(C)c(=O)c2c1 [Compound 604, 6-chloro-3-(((R)-1-(3,6-dimethyl-4-oxo-2-((1S,4S)-5-(pyridin-2-yl)-2,5-diazabicyclo [2.2.1]heptan-2-yl)-3,4-dihydroquinazolin-8-yl)ethyl)amino)-N-(methylsulfonyl) picolinamide] | 250 to 500 | ≥ 5000 | 
Cc1cc([C@@H](C)Nc2ccc(Cl)nc2C(=O)NS(C)(=O)=O)c2nc(C3CCN(c4ccc(C#N)nc4)CC3)n(C)c(=O)c2c1 [Compound 180, (R)-6-chloro-3-((1-(2-(1-(6-cyanopyridin-3-yl)piperidin-4-yl)-3,6-dimethyl-4-oxo-3,4-dihydroquinazolin-8-yl)ethyl)amino)-N-(methylsulfonyl) picolinamide] |  |  | IC50 [1, 5]: < 250 nM; IC50 [2, 6]: 1000 to 5000 nM
Cc1cc([C@@H](C)Nc2ccc(Cl)nc2C(=O)NS(C)(=O)=O)c2nc(N3C[C@@H]4[C@H](C3)[C@H]4n3cnc(C)n3)n(C)c(=O)c2c1 [Compound 566, 6-chloro-3-(((R)-1-(3,6-dimethyl-2-((1R,5S,6S)-6-(3-methyl-1H-1,2,4-triazol-1-yl)-3-azabicyclo[3.1.0]hexan-3-yl)-4-oxo-3,4-dihydroquinazolin-8-yl)ethyl)amino)-N-(methylsulfonyl) picolinamide] | 250 to 500 | 1000 to 5000 | 
COc1ccc(N2C[C@@H]3C[C@H]2CN3c2nc3c([C@@H](C)Nc4ccc(Cl)nc4C(=O)NS(C)(=O)=O)cc(C)cc3c(=O)n2C)cn1 [Compound 636, 6-chloro-3-(((R)-1-(2-((1S,4S)-5-(6-methoxypyridin-3-yl)-2,5-diazabicyclo [2.2.1]heptan-2-yl)-3,6-dimethyl-4-oxo-3,4-dihydroquinazolin-8-yl)ethyl)amino)-N-(methylsulfonyl) picolinamide] | 250 to 500 | ≥ 5000 | 
Cc1cc([C@@H](C)Nc2ccc(Cl)nc2C(=O)NS(C)(=O)=O)c2nc(N3CCC4(CCc5cn(C)nc54)CC3)n(C)c(=O)c2c1 [Compound 673, (R)-6-chloro-3-((1-(3,6-dimethyl-2-(2-methyl-4,5-dihydro-2H-spiro [cyclopenta[c]pyrazole-6,4′-piperidin]-1′-yl)-4-oxo-3,4-dihydroquinazolin-8-yl)ethyl)amino)-N-(methylsulfonyl) picolinamide] | 250 to 500 | ≥ 5000 | 
Cc1cc([C@@H](C)Nc2ccc(Cl)nc2C(=O)NS(C)(=O)=O)c2nc(N3CCN(c4nc(C(F)F)ncc4F)CC3)n(C)c(=O)c2c1 [Compound 772, (R)-6-chloro-3-((1-(2-(4-(2-(difluoromethyl)-5-fluoropyrimidin-4-yl)piperazin-1-yl)-3,6-dimethyl-4-oxo-3,4-dihydroquinazolin-8-yl)ethyl)amino)-N-(methylsulfonyl) picolinamide] | < 250 | ≥ 5000 | 
Cc1cc([C@@H](C)Nc2ccc(Cl)nc2C(=O)NS(C)(=O)=O)c2nc(N3CCC(c4cnn(C)n4)CC3)n(C)c(=O)c2c1 [Compound 489, (R)-6-chloro-3-((1-(3,6-dimethyl-2-(4-(2-methyl-2H-1,2,3-triazol-4-yl)piperidin-1-yl)-4-oxo-3,4-dihydroquinazolin-8-yl)ethyl)amino)-N-(methylsulfonyl) picolinamide] | < 250 | 1000 to 5000 | 
Cc1cc([C@@H](C)Nc2ccc(Cl)nc2C(=O)NS(C)(=O)=O)c2nc(N3CC[C@H](c4cnc(C)c(C#N)c4)C3)n(C)c(=O)c2c1 (relative stereo) [Compound 656, 6-chloro-3-(((R)-1-(2-((R*)-3-(5-cyano-6-methylpyridin-3-yl)pyrrolidin-1-yl)-3,6-dimethyl-4-oxo-3,4-dihydroquinazolin-8-yl)ethyl)amino)-N-(methylsulfonyl) picolinamide] | 250 to 500 | 1000 to 5000 | 
Cc1cc([C@@H](C)Nc2ccc(Cl)nc2C(=O)NS(C)(=O)=O)c2nc([C@H]3[C@@H]4CN(c5ccnc(C)n5)C[C@@H]43)n(C)c(=O)c2c1 [Compound 853, 6-chloro-3-(((R)-1-(3,6-dimethyl-2-((1R,5S,6r)-3-(2-methylpyrimidin-4-yl)-3-azabicyclo[3.1.0]hexan-6-yl)-4-oxo-3,4-dihydroquinazolin-8-yl)ethyl)amino)-N-(methylsulfonyl) picolinamide] |  |  | IC50 ([1]; Homo sapiens, T47D (PI3Kα-H1047R) cell line, phospho-AKT(S473) HTRF): 250 to 500 nM; IC50 ([2]; Homo sapiens, SK-BR-3, SKBR3 (PI3Kα-Wild Type) cell line, phospho-AKT(S473) HTRF): ≥ 5000 nM
